Laboratory results reported in ChEMBL document CHEMBL4418490, “N-(heteroaryl)-sulfonamide derivatives useful as s100-inhibitors” (2018).
The source made the active and inactive calls. The rule behind the calls is not given here.

How the values were obtained:
MC-38 [1] = assay: Antitumor activity against C215 transfected MC38 cells implanted in C57BL/6 mouse assessed as inhibition of tumor growth at 30 mg/kg, po dosed daily for 15 days starting following day of tumor inoculation; assay type: functional, organism-based
MC-38 [2] = assay: Antitumor activity against C215 transfected MC38 cells implanted in C57BL/6 mouse assessed as inhibition of tumor growth at 30 mg/kg, po dosed daily for 16 days starting following day of tumor inoculation; assay type: functional, organism-based

SMILES | TGI (MC-38 [1]) | TGI (MC-38 [2])
O=S(=O)(Nc1cnccc1O)c1cc(Cl)sc1Cl | Active | –
COc1ncc(S(=O)(=O)Nc2cncc(Cl)c2O)cc1Br | – | Active
